# Data published in US4595678A, “N-substituted pseudo-aminosugars and pharmaceutical compositions containing same” (Takeda Chemical Industries, Ltd., priority 1982, dated 1986).
# Where two headings read alike, the source gives them in different places.
# Legend:
# [1] = test system: α-glucoside hydrolase (α-glucosidase); conditions: earlier reports; cited from earlier work
# [2] = test system: α-glucoside hydrolase (α-glucosidase); assay: α-glucoside hydrolase / α-glucosidase inhibitory activity, in words; format: biochemical; conditions: found by the inventors
Compound,α-glucoside hydrolase suppressing / α-glucosidase inhibitory activity [1],α-glucoside hydrolase suppressing / α-glucosidase inhibitory activity [2]
N[C@H]1C=C(CO)[C@@H](O)[C@H](O)[C@H]1O [valienamine],possesses an action of suppressing the function of α-glucoside hydrolase,
N[C@H]1C[C@H](CO)[C@@H](O)[C@H](O)[C@H]1O [validamine],,possesses a highly valuable action of suppressing the function of α-glucoside hydrolase
"N[C@H]1C[C@](O)(CO)[C@@H](O)[C@H](O)[C@H]1O [valiolamine, 1L(1S)-(1(OH),2,4,5/1,3)-5-amino-1-hydroxymethyl-1,2,3,4-cyclohexanetetraol]",possesses α-glucosidase inhibitory activity,
C[C@H]1O[C@H](O[C@@H]2[C@H](O)[C@@H](O)[C@@H](O[C@@H]3[C@H](O)[C@@H](O)[C@@H](O[C@@H]4[C@H](O)[C@H](O)[C@@H](O[C@H]5O[C@H](CO)[C@H](O)[C@H](O)[C@H]5O)O[C@@H]4CO)O[C@@H]3CO)O[C@H]2CO)[C@@H](O)[C@@H](O)[C@@H]1N[C@@H]1C=C(CO)[C@@H](O)[C@@H](O)[C@@H]1O (stereo in doubt) [Trestatin B],far from being satisfactory,
C[C@H]1O[C@H](O[C@@H]2[C@H](O)[C@H](O)[C@@H](O[C@@H]3[C@H](O)[C@@H](O)[C@@H](O[C@@H]4[C@H](O)[C@H](O)[C@@H](O[C@H]5O[C@@H](CO)[C@H](O)[C@H](O)[C@H]5O)O[C@@H]4CO)O[C@@H]3CO)O[C@H]2CO)[C@H](O)[C@@H](O)[C@@H]1N[C@H]1C=C(CO)[C@@H](O[C@H]2O[C@H](CO)[C@H](O[C@H]3O[C@H](C)[C@@H](N[C@H]4C=C(CO)[C@@H](O)[C@H](O)[C@H]4O)[C@H](O)[C@H]3O)[C@H](O)[C@H]2O)[C@H](O)[C@H]1O (stereo in doubt) [Trestatin A],far from being satisfactory,
C[C@H]1O[C@H](O[C@H]2[C@H](O)[C@@H](O)[C@@H](O[C@H]3[C@H](O)[C@@H](O)[C@@H](O[C@H]4[C@H](O)[C@@H](O)[C@@H](O[C@H]5O[C@H](CO)[C@@H](O)[C@H](O)[C@H]5O)O[C@@H]4CO)O[C@@H]3CO)O[C@@H]2CO)[C@H](O)[C@@H](O)[C@@H]1N[C@H]1C=C(CO)[C@@H](O[C@H]2O[C@H](CO)[C@@H](O[C@H]3O[C@H](C)[C@@H](NC4C=C(CO)[C@@H](O[C@H]5O[C@H](CO)[C@@H](O[C@H]6O[C@H](C)[C@@H](NC7C=C(CO)[C@@H](O)[C@H](O)[C@H]7O)[C@H](O)[C@H]6O)[C@H](O)[C@H]5O)[C@H](O)[C@H]4O)[C@H](O)[C@H]3O)[C@H](O)[C@H]2O)[C@H](O)[C@H]1O (stereo partly shown) [Trestatin C],far from being satisfactory,
C[C@H]1O[C@H](O[C@H]2[C@H](O)[C@@H](O)[C@@H](O[C@H]3[C@H](O)[C@@H](O)C(O)O[C@@H]3CO)O[C@@H]2CO)[C@H](O)[C@@H](O)[C@@H]1N[C@H]1C=C(CO)[C@@H](O)[C@H](O)[C@H]1O (stereo partly shown) [Acarbose],far from being satisfactory,
